According to US11352350B2, “IRAK degraders and uses thereof” (Kymera Therapeutics, Inc., priority 2018, dated 2022):
Where two headings read alike, the source gives them in different places.

What was measured:
[1] = system: OCI-LY10; assay: CTG Cell Viability Assay - OCI-LY10; type: cell-based, human; details: OCI-LY10, 4 days, read-out: CTG Cell Viability Assay - OCI-LY10: Average external-IC50
Experimental: Compound-mediated viability effect on OCI-LY10 or TMD8 was quantitatively determined using the CellTiter-Glo® Luminescent Cell Viability Assay kit from Promega (Catalog number G7570) following manufacturer's recommended procedures. […] Compounds were then added to the assay plate with final top concentration of 10 μM and 1:3 dilution series with total of 9 doses. The final DMSO concentration was normalized to 0.2%. The assay plates were incubated at 37° C. for 4 days under 5% CO2. Then the assay plate was equilibrated at room temperature for 10 minutes. […] The data was then analyzed by software Prism 7.0 from GraphPad and the dose response curves were fit using a three-parameter logistic equation to calculate IC50.

[2] = biological target: IRAK4 (Homo sapiens (Human), UniProt Q9NWZ3); assay: IRAK4 MSD degradation in OCI-LY10; type: cell-based; details: MSD
IRAK4, sequence (Q9NWZ3 whole entry): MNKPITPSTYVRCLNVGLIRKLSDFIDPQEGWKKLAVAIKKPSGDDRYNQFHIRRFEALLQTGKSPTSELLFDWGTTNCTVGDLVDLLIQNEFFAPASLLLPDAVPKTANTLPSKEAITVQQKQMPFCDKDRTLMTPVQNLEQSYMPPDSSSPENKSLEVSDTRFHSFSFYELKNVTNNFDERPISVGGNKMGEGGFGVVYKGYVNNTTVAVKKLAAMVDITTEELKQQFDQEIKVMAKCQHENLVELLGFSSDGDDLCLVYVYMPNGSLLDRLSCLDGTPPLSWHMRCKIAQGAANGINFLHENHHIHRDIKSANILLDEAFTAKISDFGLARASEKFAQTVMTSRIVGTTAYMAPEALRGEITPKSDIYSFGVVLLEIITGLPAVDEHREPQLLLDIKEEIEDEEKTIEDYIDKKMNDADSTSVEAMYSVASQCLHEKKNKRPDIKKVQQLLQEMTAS
Experimental: Degradation of IRAK4 in OCI-LY10 was quantitatively measured using Meso Scale Discovery technology. […] Compounds were then added to the assay plates with a final top concentration of 1 to 10 μM in a 1:3 dilution series with total of 8 doses. The assay plates were then incubated for 4 to 24 hours at 37° C. under 5% CO2. […] To prepare MSD assay plates (Meso Scale Discovery Catalog number L15XA-3), the plates were coated with […] capture antibody (mouse Anti-IRAK4 antibody [2H9], ab119942) in PBS, at 40 μL/well. […] Cell lysates were then added to MSD assay plates and the plates were incubated at room temperature for 1 hour. The plates were then washed 3 times with 150 μL/well TBST buffer and 25 μL/well primary detection antibody (rabbit Anti-IRAK4 antibody [Y279], from Abcam. Catalog number ab32511, […]). The assay plates were then incubated at room temperature for 1 hour, washed 3 times with 150 μL/well TBST buffer and 25 µL/well secondary detection antibody, SULFO-TAG anti-rabbit antibody were added (anti rabbit antibody from Meso Scale Discovery, Catalog number R32AB-1, 1 μg/mL). The assay plates were then incubated at room temperature for 1 hour, washed 3 times with 150 μL/well TB ST buffer, and 150 μL/well MSD reading buffer (Meso Scale Discovery catalog number R92TC-2) was added. The plates were then analyzed by a MSD reader (Meso Scale Discovery, Model Quick Plex SQ 120). The data was then analyzed by software Prism 7.0 from GraphPad and the dose-depended IRAK4 degradation were fit using a three-parameter logistic equation to calculate DC50.

[3] = OCI-LY10, 4 hrs, read-out: IRAK4 MSD degradation in OCI-LY10 at 4 hrs: Average external-Abs DC50
[4] = OCI-LY10, 24 hrs, read-out: IRAK4 MSD degradation in OCI-LY10 at 24 hrs: Average external-Abs DC50

Structure (SMILES)	IC50 ([1]; Homo sapiens, OCI-Ly10, 96 h) [nM]	DC50 [2, 3] [nM]	also measured
Cn1c(=O)n(C2CCC(=O)NC2=O)c2cccc(-c3ccc4nn(CCOC[C@H]5CC[C@H](n6cc(NC(=O)c7cnn8ccc(N9CCOCC9)nc78)c(C(F)F)n6)CC5)cc4c3)c21 (stereo partly drawn) [I-406]	> 1000	–	–
Cn1c(=O)n(C2CCC(=O)NC2=O)c2ccc(CCCOC3CN(C[C@H]4CC[C@H](n5cc(NC(=O)c6coc(-c7ccnc(NCC8CC8)c7)n6)c(C(F)F)n5)CC4)C3)cc21 (stereo partly drawn) [I-121]	> 1000	–	–
Cn1c(=O)n(C2CCC(=O)NC2=O)c2cccc(CCCOCC(F)CNC(=O)c3cnc(-n4ncc5cc(C#N)cnc54)cc3NC3CC3)c21 (stereo not drawn) [I-137]	> 1000	–	–
Cn1c(=O)n(C2CCC(=O)NC2=O)c2ccc(C#CC3CCN(C[C@H]4CC[C@H](n5cc(NC(=O)c6coc(-c7ccnc(NCC8CC8)c7)n6)c(C(F)F)n5)CC4)CC3)cc21 (stereo partly drawn) [I-111]	> 1000	–	–
CC1C(=O)N(C2CCC(=O)NC2=O)c2cccc(C3CCN(CCCN(C)C[C@H]4CC[C@H](n5cc(NC(=O)c6coc(-c7ccnc(NCC8CC8)c7)n6)c(C(F)F)n5)CC4)CC3)c21 (stereo partly drawn) [I-114]	–	–	IC50 [1]: 100 to 500 nM
CN(CC1CCC(n2cc(NC(=O)c3coc(-c4ccnc(NCC5CC5)c4)n3)c(C(F)F)n2)CC1)C[C@H]1CN(CCCc2cccc3c2n(C)c(=O)n3C2CCC(=O)NC2=O)CCO1 (stereo partly drawn) [I-113]	> 1000	–	–
CN(CCOCCCc1ccc2c(c1)n(C)c(=O)n2C1CCC(=O)NC1=O)C[C@H]1CC[C@H](n2cc(NC(=O)c3coc(-c4ccnc(NCC5CC5)c4)n3)c(C(F)F)n2)CC1 (stereo partly drawn) [I-128]	> 1000	–	–
O=C1CCC(n2c3ccccc3c3c(CCCOC4CCN(CC5CCC(n6cc(NC(=O)c7coc(-c8ccnc(NCC9CC9)c8)n7)c(C(F)F)n6)CC5)CC4)ccnc32)C(=O)N1 (stereo not drawn) [I-123]	500 to 1000	–	–
Cn1c(=O)n(C2CCC(=O)NC2=O)c2cccc(CCCOC3CCN(C[C@H]4CC[C@H](n5cc(NC(=O)c6cnn7ccc(N8CCNCC8)nc67)c(C(F)F)n5)CC4)CC3)c21 (stereo partly drawn) [I-125]	> 1000	–	–
Cn1c(=O)n(C2CCC(=O)NC2=O)c2cccc(CCCOC3CN(C[C@H]4CC[C@H](n5cc(NC(=O)c6coc(-c7ccnc(NCC8CC8)c7)n6)c(C(F)F)n5)CC4)C3)c21 (stereo partly drawn) [I-122]	> 1000	–	–
CN(C[C@@H]1CN(CCNCc2ccc3c(c2)n(C)c(=O)n3C2CCC(=O)NC2=O)CCO1)C(=O)[C@H]1CC[C@H](n2cc(NC(=O)c3coc(-c4ccnc(NCC5CC5)c4)n3)c(C(F)F)n2)CC1 (stereo partly drawn) [I-106]	> 1000	–	–
CN(CCOCCCc1cccc2c1n(C)c(=O)n2C1CCC(=O)NC1=O)C[C@H]1CC[C@H](n2cc(NC(=O)c3coc(-c4ccnc(NCC5CC5)c4)n3)c(C(F)F)n2)CC1 (stereo partly drawn) [I-124]	> 1000	–	–
CN(CC[C@@H]1CN(CCCc2cccc3c2n(C)c(=O)n3C2CCC(=O)NC2=O)CCO1)C[C@H]1CC[C@H](n2cc(NC(=O)c3coc(-c4ccnc(NCC5CC5)c4)n3)c(C(F)F)n2)CC1 (stereo partly drawn) [I-116]	> 1000	–	–
CN(CCCCc1cccc2c1n(C)c(=O)n2C1CCC(=O)NC1=O)C[C@H]1CC[C@H](n2cc(NC(=O)c3coc(-c4ccnc(NCC5CC5)c4)n3)c(C(F)F)n2)CC1 (stereo partly drawn) [I-66]	–	< 10	–
CNc1cc(-c2nc(C(=O)Nc3cn([C@H]4CC[C@H](CN(C)CCCOCCCc5cccc6c5n(C)c(=O)n6C5CCC(=O)NC5=O)CC4)nc3C(F)F)co2)ccn1 (stereo partly drawn) [I-68]	–	10 to 100	–
Cn1c(=O)n(C2CCC(=O)NC2=O)c2cccc(CN3CCC(OCC4CCN(C[C@H]5CC[C@H](n6cc(NC(=O)c7coc(-c8ccnc(NCC9CC9)c8)n7)c(C(F)F)n6)CC5)CC4)CC3)c21 (stereo partly drawn) [I-248]	–	< 10	–
Cn1c(=O)n(C2CCC(=O)NC2=O)c2cccc(-c3ccc4c(cnn4CCOC[C@H]4CC[C@H](n5cc(NC(=O)c6cnn7ccc(N8CCOCC8)nc67)c(C(F)F)n5)CC4)c3)c21 (stereo partly drawn) [I-405]	> 1000	–	–
CN(CC[C@H]1CN(CCCc2cccc3c2n(C)c(=O)n3C2CCC(=O)NC2=O)CCO1)C[C@H]1CC[C@H](n2cc(NC(=O)c3coc(-c4ccnc(NCC5CC5)c4)n3)c(C(F)F)n2)CC1 (stereo partly drawn) [I-117]	> 1000	–	–

Structure (SMILES)	IC50 ([1]; Homo sapiens, OCI-Ly10, 96 h) [nM]	DC50 [2, 3] [nM]	also measured
Cn1c(=O)n(C2CCC(=O)NC2=O)c2cccc(CN3CCC(CC4CCN(C[C@H]5CC[C@H](n6cc(NC(=O)c7coc(-c8ccnc(NCC9CC9)c8)n7)c(C(F)F)n6)CC5)CC4)CC3)c21 (stereo partly drawn) [I-74]	–	< 10	–
Cn1c(=O)n(C2CCC(=O)NC2=O)c2ccc(CN3CCN([C@@H]4CCN(C[C@H]5CC[C@H](n6cc(NC(=O)c7coc(-c8ccnc(NCC9CC9)c8)n7)c(C(F)F)n6)CC5)C4)CC3)cc21 (stereo partly drawn) [I-110]	> 1000	–	–
CN(C[C@@H]1CN(CCNCc2ccc3c(c2)n(C)c(=O)n3C2CCC(=O)NC2=O)CCO1)C[C@H]1CC[C@H](n2cc(NC(=O)c3coc(-c4ccnc(NCC5CC5)c4)n3)c(C(F)F)n2)CC1 (stereo partly drawn) [I-109]	> 1000	–	–
Cn1c(=O)n(C2CCC(=O)NC2=O)c2ccc(CN3CCC(CCC(=O)N4CCC(n5cc(NC(=O)c6coc(-c7ccnc(NCC8CC8)c7)n6)c(C(F)F)n5)CC4)CC3)cc21 (stereo not drawn) [I-255]	–	10 to 100	DC50 [2, 4]: < 10 nM
CC(C)N(CCCOCCCc1cccc2c1n(C)c(=O)n2C1CCC(=O)NC1=O)C[C@H]1CC[C@H](n2cc(NC(=O)c3coc(-c4ccnc(NCC5CC5)c4)n3)c(C(F)F)n2)CC1 (stereo partly drawn) [I-63]	–	10 to 100	–
CN(CCC1CCN(Cc2cccc3c2n(C)c(=O)n3C2CCC(=O)NC2=O)CC1)C[C@H]1CC[C@H](n2cc(NC(=O)c3coc(-c4ccnc(NCC5CC5)c4)n3)c(C(F)F)n2)CC1 (stereo partly drawn) [I-79]	–	10 to 100	–
CN(CCCOCCCc1cccc2c1n(C)c(=O)n2C1CCC(=O)NC1=O)C[C@H]1CC[C@H](n2cc(NC(=O)c3coc(-c4ccncc4)n3)c(C(F)F)n2)CC1 (stereo partly drawn) [I-69]	–	100 to 1000	–
CN(C[C@@H]1CN(Cc2cccc3c2n(C)c(=O)n3C2CCC(=O)NC2=O)CCO1)C[C@H]1CC[C@H](n2cc(NC(=O)c3coc(-c4ccnc(NCC5CC5)c4)n3)c(C(F)F)n2)CC1 (stereo partly drawn) [I-78]	–	10 to 100	–
Cn1c(=O)n(C2CCC(=O)NC2=O)c2cccc(CCCO[C@H]3CCN(C[C@H]4CC[C@H](n5cc(NC(=O)c6coc(-c7ccnc(NCC8CC8)c7)n6)c(C(F)F)n5)CC4)C3)c21 (stereo partly drawn) [I-72]	–	10 to 100	–
CN(CC[C@H]1CN(CCCc2ccc3c(c2)n(C)c(=O)n3C2CCC(=O)NC2=O)CCO1)C[C@H]1CC[C@H](n2cc(NC(=O)c3coc(-c4ccnc(NCC5CC5)c4)n3)c(C(F)F)n2)CC1 (stereo partly drawn) [I-96]	–	10 to 100	–
CN(CCCOCC#Cc1cccc2c1n(C)c(=O)n2C1CCC(=O)NC1=O)C[C@H]1CC[C@H](n2cc(NC(=O)c3coc(-c4ccnc(NCC5CC5)c4)n3)c(C(F)F)n2)CC1 (stereo partly drawn) [I-88]	–	100 to 1000	–
Cn1c(=O)n(C2CCC(=O)NC2=O)c2cccc(CCCOC3CCN(C[C@H]4CC[C@H](n5cc(NC(=O)c6cnn7cccnc67)c(C(F)F)n5)CC4)CC3)c21 (stereo partly drawn) [I-251]	–	100 to 1000	–
CN(CCCOCCCc1ccc2c(c1)oc(=O)n2C1CCC(=O)NC1=O)C[C@H]1CC[C@H](n2cc(NC(=O)c3coc(-c4ccnc(NCC5CC5)c4)n3)c(C(F)F)n2)CC1 (stereo partly drawn) [I-87]	–	< 10	–
CN(CC1CCN(CCC#Cc2ccc3c(c2)n(C)c(=O)n3C2CCC(=O)NC2=O)CC1)C[C@H]1CC[C@H](n2cc(NC(=O)c3coc(-c4ccnc(NCC5CC5)c4)n3)c(C(F)F)n2)CC1 (stereo partly drawn) [I-57]	–	< 10	–
Cn1c(=O)n(C2CCC(=O)NC2=O)c2ccc(CCCOCCCCCN3CCC(n4cc(NC(=O)c5coc(-c6ccnc(NCC7CC7)c6)n5)c(C(F)F)n4)CC3)cc21 (stereo not drawn) [I-261]	–	< 10	DC50 [2, 4]: < 10 nM
Cn1c(=O)n(C2CCC(=O)NC2=O)c2cccc(CCCOCCCN(C[C@H]3CC[C@H](n4cc(NC(=O)c5coc(-c6ccnc(NCC7CC7)c6)n5)c(C(F)F)n4)CC3)C3CC3)c21 (stereo partly drawn) [I-64]	–	100 to 1000	–
CN(CCOCCCc1cccc2c1N(C)C(=O)C2C1CCC(=O)NC1=O)CC[C@H]1CC[C@H](n2cc(NC(=O)c3coc(-c4ccnc(NCC5CC5)c4)n3)c(C(F)F)n2)CC1 (stereo partly drawn) [I-154]	–	10 to 100	DC50 [2, 4]: 10 to 100 nM
CN(CCCOCCCc1cccc2c1n(C)c(=O)n2C1CCC(=O)NC1=O)C[C@H]1CC[C@H](n2cc(NC(=O)c3cccc(C(F)(F)F)n3)c(C(C)(C)O)n2)CC1 (stereo partly drawn) [I-71]	–	100 to 1000	–
